# In PubChem BioAssay (NCI):
# Several values for one entry are separate records, joined by “and”; a condition that tells them apart may be missing. Identical values can stand only once.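 Five compound concentrations were applied to cells in 96-well plates for 48 hours; endpoints were derived by simple linear interpolation of the resulting dose-response curve. Abbreviation: GI50, concentration required for 50% inhibition of growth. TGI: concentration producing complete growth inhibition.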
# How the values were obtained:
# Assay in all cases: growth of human tumour cells (NCI), 48 h
# 786-0 renal = system: 786-0 renal
# CAKI-1 renal = system: CAKI-1 renal
# HOP-62 NSCLC = system: HOP-62 NSCLC
# HOP-92 NSCLC = system: HOP-92 NSCLC
# M14 melanoma = system: M14 melanoma
# OVCAR-4 ovarian = system: OVCAR-4 ovarian
# OVCAR-5 ovarian = system: OVCAR-5 ovarian
# SK-MEL-5 melanoma = system: SK-MEL-5 melanoma
# SW-620 colon = system: SW-620 colon
# UACC-257 melanoma = system: UACC-257 melanoma
SMILES,GI50 (786-0 renal),TGI (786-0 renal),GI50 (CAKI-1 renal),TGI (CAKI-1 renal),GI50 (HOP-62 NSCLC),TGI (HOP-62 NSCLC),GI50 (HOP-92 NSCLC),TGI (HOP-92 NSCLC),GI50 (M14 melanoma),TGI (M14 melanoma),GI50 (OVCAR-4 ovarian),TGI (OVCAR-4 ovarian),GI50 (OVCAR-5 ovarian),TGI (OVCAR-5 ovarian),GI50 (SK-MEL-5 melanoma),TGI (SK-MEL-5 melanoma),GI50 (SW-620 colon),TGI (SW-620 colon),GI50 (UACC-257 melanoma),TGI (UACC-257 melanoma)
C=C(C)[C@@H]1CC[C@]2(C(=O)OC)CC[C@]3(C)[C@H](CC[C@@H]4[C@@]5(C)CC/C(=N\OCCC(=NCCC#N)NOCCC#N)C(C)(C)[C@@H]5CC[C@]43C)[C@@H]12,6.42 µM,16.4 µM,10.2 µM,> 50 µM,12.5 µM,> 50 µM,6.9 µM,35 µM,11.9 µM,> 50 µM,12.3 µM,> 50 µM,16.7 µM,> 50 µM,3.02 µM,10 µM,4.45 µM,> 50 µM,5.35 µM,> 50 µM
Cc1n[nH]c(C)c1-c1c(C)n[nH]c1C,2.37 µM,6.42 µM,1.54 µM,3.13 µM,2.4 µM,9.11 µM,1.17 µM,2.99 µM,2.01 µM,5.12 µM,2.28 µM,6.38 µM,2.13 µM,4.85 µM,1.74 µM,3.18 µM,1.87 µM,4.38 µM,2.18 µM,5.68 µM
CN(C)CCCn1c2c(c3ccc(N4CCNCC4)cc3c1=O)C(=O)c1ccccc1-2,1.34 µM,2.73 µM,1.05 µM,4.52 µM,1.06 µM,2.64 µM,1.72 µM,6.53 µM,1.05 µM,2.39 µM,0.343 µM,1.88 µM,2.12 µM,5.57 µM,0.698 µM,2.2 µM,0.164 µM,1.61 µM,1.69 µM,3.74 µM
N#CCC1CCN(c2nc(Nc3ccc(N4CCC(O)CC4)cc3)c3c(=O)[nH]ncc3n2)CC1,0.82 µM,> 100 µM,0.312 µM,> 100 µM,0.801 µM,> 100 µM,0.239 µM,> 100 µM,0.402 µM,> 100 µM,> 58.1 µM,> 100 µM,1.22 µM,> 100 µM,> 100 µM,> 100 µM,0.443 µM,> 100 µM,> 100 µM,> 100 µM
Nc1c2ccccc2nc2ccccc12,2.61 µM and 3.64 µM,11.4 µM and 14.7 µM,1.96 µM and 2.11 µM,5.96 µM,1.66 µM and 3.66 µM,4.96 µM and 15.2 µM,1.63 µM and 3.71 µM,4.82 µM and 23.2 µM,1.7 µM and 3.21 µM,3.48 µM and 10 µM,1.02 µM and 2.69 µM,6.38 µM and 7.3 µM,2.71 µM and 3.36 µM,13.4 µM and 8.16 µM,1.62 µM and 2.12 µM,2.99 µM and 4.46 µM,1.06 µM and 3.06 µM,5.95 µM and 22.6 µM,1.54 µM and 3.21 µM,3.06 µM and 10.1 µM
CCN(CC)CCN1C(=O)c2cccc3cc(N)cc(c23)C1=O,–,> 100 µM,–,> 100 µM,–,40.3 µM,–,> 100 µM,–,32.1 µM,–,48.3 µM,–,15.7 µM,–,26.6 µM,–,83.3 µM,–,25.7 µM
COc1cccc(-c2cc(-c3ccc(Nc4nc(Nc5ccc(Cl)cc5)nc(Nc5ccc(Cl)cc5)n4)cc3)nc(N)c2C#N)c1,1.77 µM,3.43 µM,1.23 µM,5.09 µM,21.1 µM,44.6 µM,1.1 µM,3.41 µM,2.5 µM,7.12 µM,4.09 µM,> 100 µM,3.3 µM,15.1 µM,2.03 µM,6.35 µM,2.41 µM,5.64 µM,2.03 µM,4.8 µM
CCN(CC)c1ccc(C=C2C(=O)NC(=S)NC2=O)cc1,2.27 µM,4.08 µM,1.72 µM,4.5 µM,5.7 µM,19.1 µM,2.6 µM,7.78 µM,6.6 µM,21 µM,7.58 µM,19.5 µM,11.9 µM,26.5 µM,9.25 µM,21.5 µM,1.91 µM,4.32 µM,6.46 µM,19.4 µM
COC1=C(OC)C(=O)c2cc(C)c(=O)c(C)cc2C1=O,–,24.5 µM,–,31.7 µM,–,36.6 µM,–,30.4 µM,–,30.8 µM,–,7.64 µM,–,47.6 µM,–,29.3 µM,–,20.7 µM,–,25.6 µM
CCn1c(O)c(C(=O)Nc2cccs2)c(=O)n(CC)c1=S,–,42.2 µM,–,75.9 µM,–,47.6 µM,–,47.8 µM,–,43.8 µM,–,70.9 µM,–,61.5 µM,–,38.5 µM,–,56.2 µM,–,56 µM
CCCN1CCCC(c2ccc(Nc3nc(Nc4cc(F)ccc4C(N)=O)c4cc[nH]c4n3)c(OC)c2)C1 (stereo not given),2.84 µM,6.29 µM,3.17 µM,8.63 µM,2.62 µM,5.58 µM,0.013 µM,1.39 µM,1.02 µM,4.8 µM,3.03 µM,6.13 µM,0.556 µM,5.36 µM,3.03 µM,6.24 µM,0.106 µM,3.66 µM,0.188 µM,4.54 µM
N=C(N)c1ccc(-c2ccc(-c3cccs3)s2)cc1F,1.14 µM,2.63 µM,1.37 µM,2.82 µM,1.61 µM,3.07 µM,0.576 µM,2.21 µM,1.45 µM,2.97 µM,1.54 µM,3.85 µM,1.02 µM,2.36 µM,1.27 µM,2.69 µM,0.506 µM,1.94 µM,1.77 µM,3.43 µM
COc1ccc(Cc2c3cc(OC)c(OC)cc3cc[n+]2C)cc1,–,> 29.7 µM,–,> 61.7 µM,–,> 48.7 µM,–,58.7 µM,–,> 28.1 µM,–,> 40.5 µM,–,> 100 µM,–,> 62.2 µM,–,> 100 µM,–,> 58.4 µM
Cc1cc(C)c(CNC(=O)c2cc(Cl)c3c(c2C)O[C@@](C)(C2CCC(N(C)C)CC2)O3)c(=O)[nH]1 (stereo not given in full),33.1 µM,> 100 µM,93.1 µM,> 100 µM,> 100 µM,> 100 µM,18.4 µM,> 100 µM,33.8 µM,> 100 µM,83.9 µM,> 100 µM,> 100 µM,> 100 µM,21.3 µM,63.2 µM,> 100 µM,> 100 µM,95.3 µM,> 100 µM
